Literature values as cited in paper PMC13363528, “Structure–Activity Relationships of Pyrrolyl-Containing Diketo Acid and Non-Diketo Acid Derivatives as Inhibitors of SARS-CoV-2 nsp13-Associated Activities” (Molecules, 2026).

Molecular target: SARS-CoV-2 nsp13 (Severe acute respiratory syndrome coronavirus 2, UniProt P0DTD1)
Conditions: without BSA/TCEP; read-out: IC50 Unwinding

O=c1c(O)c(-c2ccc(O)cc2)oc2cc(O)cc(O)c12 [Kaempferol]
IC50: 760 ± 160 nM
